Source: patent US20260345605A1, “THERAPEUTIC AGENTS FOR HEART FAILURE” (Ottawa Hospital Research Institute, priority 2023, published 2026)

Columns and labels:
Aurora B = conditions: role: inhibitor; cited from earlier work
[1] = system: phospho-Histone 3 (Ser10); assay: phospho-Histone 3 (pH3 Ser10) staining in NRVM; format: cell-based, neonatal rat
Method: A one-way ANOVA test performed to assess statistical significance across treatment groups.
The effect of AZD1152-HQPA on cardiac remodeling was further validated using the phospho-Histone 3 (pH3 Ser10) staining which is the downstream target of aurora kinase B. The NRVMs were plated at a density of 2.5×10^4 cells onto 25 mm diameter collagen coated coverslip. The cells were treated with controls (hCT1, PE), AZD1152-HQPA followed by a combination of PE and AZD1152-HQPA.
Post treatment, the cells were washed, fixed, and were subjected to sequential staining of primary antibodies a Actinin and phospho-Histone 3 (Ser10). The images were acquired using the Zeiss AxioVision SE64 Imaging software and analyzed using the ImageJ software. […] The data are represented as Mean±Standard deviation.

aurora kinase B = assay: pAurkB S727 immunofluorescence and remodeling in NRVM; format: cell-based, neonatal rat
Method: Immunofluorescence was performed to validate and assess the effect of aurora B kinase inhibitor on cardiomyocyte remodeling. NRVMs were plated at a density of 2.5×10^4 cells onto 25 mm diameter collagen coated coverslip. Primary cardiomyocytes were incubated with control serum-free medium (Ctrl, SF medium), hCT1 (0.5 nM), PE (100 μM), AZD1152-HQPA (1.5 μM) and assessed for aurora kinase B activation using pAurkB s727 antibody staining. The cells were treated with a combination of PE and AZD1152 HQPA where the cells were stimulated with the drug for 4 hours following the PE treatment for 24 hours.
Post treatment, the cells were washed, fixed, and were subjected to sequential staining of primary antibodies a Actinin and phospho-AurkB (S727). The images were acquired using the Zeiss AxioVision SE64 Imaging software and analyzed using the ImageJ2 software. Immunofluorescence was used to detect α-actinin, pAurkb S727, and nuclei were stained with DAPI.

[2] = system: NT Pro-BNP (iCell Cardiomyocyte); assay: NT Pro-BNP ELISA in iCell Cardiomyocyte supernatants; format: cell-based, human; conditions: 24 hour; for Mean NT Pro-BNP levels: iCell Cardiomyocyte, UT 2407.521
Method: (§1) A secondary screening was performed with 10 drugs identified from primary screening for their ability to induce physiological remodeling using morphometric analysis and measuring the levels of B-type natriuretic peptide (BNP), as a surrogate indicator of the hypertrophic response using ELISA. The compounds were selected based on the highly enriched targets identified in the drug set enrichment analysis with a high Z score. Cryopreserved iPS cell-derived cardiomyocytes (“iCell Cardiomyocytes”) obtained from Cellular Dynamics International (CDI, Madison, WI) were used as a cell model to perform the screening.
Pro-NT BNP levels in the culture media were measured following the 24 hour treatment using the Human NT Pro-BNP DuoSet ELISA kit (R&D Systems, Minnesota USA) as per the manufacturer's instruction. […] The plates were read on BMG BioTek Molecular Devices SpectraMax Microplate Reader at 450 nm to obtain the optical density followed by reading at 540 nm for wavelength correction.
Protein levels were identified by plotting a 4 parametric logistic regression curve using the standards provided with the kit.

cardiomyocytes = assay: Overall observation on remodeling of treated cardiomyocytes; format: cell-based
[3] = cited from earlier work
[4] = system: iPS cell-derived cardiomyocytes (iCell Cardiomyocytes); assay: Secondary screening: morphometric analysis of iCell Cardiomyocytes; format: cell-based, human; conditions: for Mean Cardiomyocyte Length: iCell Cardiomyocyte, UT 213.01323; for length in iCell cardiomyocyte compared to hCT1: iCell cardiomyocytes, 96 well, four concentrations
Description: (§2) A library of 800 small molecule compounds that can stimulate favorable cardiac adaptation in primary neonatal rat ventricular myocytes (NRVM) was screened. To identify the beneficial modifiers of hypertrophy, the Cellomics Arrayscan High Throughput Screening platform was employed to quantify morphometric features such as, for example, length, width, and length to width ratio from images acquired using a 10× lens for DAPI-labeled nuclei and CY3 labeled α actinin stained cardiomyocytes in a 96 well format. The lead compound was also screened in iPSC derived cardiomyocytes as a part of secondary screening as it offers a physiologically relevant human cell-based model.
as §1
The cells were plated at a density of 2.5×10^4 cells onto 25 mm diameter fibronectin coated glass coverslips in plating media for 48 hours. The media was replaced with Supplemented William's E (SWE) medium (SWE) media supplemented with cocktail containing penicillin-streptomycin, ITS+(insulin, transferrin, selenium complex, BSA, and linoleic acid), GlutaMAX™, and HEPES (Primary Hepatocyte Maintenance Supplements-GIBCO) for 48 hours. The cells were treated with controls (CT1-40 ng/mL, PE-100 uM) and drugs (AZD1152-HQPA, LY283519) at varying concentrations (2.5, 1, 0.5, and 0.25 uM) for 24 hours.
Post treatments, the cells were washed, fixed and treated with primary antibody, secondary antibody similar to the protocol of Example 3. The effect on the morphometric parameters was assessed using Cellomics Arrayscan Vti HCS reader. The Image acquisition was performed using the Zeiss AxioVision SE64 Imaging software and analyzed using the ImageJ2 software.
iCell cardiomyocytes were seeded at a density of 10,000 cells per well in a 96 well plate format. The cells were maintained as in Example 3 and were treated with controls (hCT1, PE) and drugs (AZD1152-HQPA, LY283519) at four different concentrations for 24 hours. The cells were then fixed and stained with a Actinin for cardiomyocytes followed by nuclear staining with DAPI. The plates were analyzed in Cellomics Arrayscan Vti HCS reader to assess morphometric changes following treatment.

[5] = system: DOX-induced cardiomyocyte apoptosis and ventricular dysfunction; conditions: cited from earlier work
CDK4/6 = conditions: role: inhibitor; cited from earlier work
[6] = system: streptozotocin (STZ)-induced cardiac dysfunction; conditions: animal model of diabetic cardiomyopathy; cited from earlier work
CDK2 = conditions: role: inhibitor; cited from earlier work
[7] = system: neonatal rat ventricular cardiomyocytes; assay: Calcium transients (Fura2-AM) in neonatal rat ventricular cardiomyocytes; format: cell-based
Method: Method: Freshly isolated wildtype neonatal rat ventricular cardiomyocytes were plated onto laminin coated glass coverslides, rinsed once and then loaded with 1 μM Fura2-AM (Life Technologies) for 15 min at 37 °C. After washing the cells thrice with Tyrode solution, measuring chambers were transferred onto a Nikon Eclipse TE2000-U microscope equipped with a fluorescence detection system (IonOptix). Ca^2+ transient values were recorded according to the corresponding FRET experiments. F340/F380 values in Fura2-AM experiments were calculated from the ratios of 510 nm emission light measured at 340 and 380 nm excitations.

[8] = system: primary neonatal rat ventricular myocytes (NRVM); assay: Primary screen of 800 compounds for cardiomyocyte length (Cellomics Arrayscan morphometry, NRVM); format: cell-based, Sprague Dawley rat; conditions: compared to PE-treated cardiomyocyte and a control; 24 hour treatment
Description: as §2
Neonatal rat ventricular myocytes (NRVM) were isolated from 2-day-old Sprague Dawley rat pups. The NRVM were cultured in plating media (Dulbecco Modified Eagle Media, 10% Fetal Bovine Serum, 100 U/mL penicillin, and […] streptomycin) at a density of 10,000 cells per well in a 96 well plate format. One day after isolation, myocytes were switched to serum-free maintenance media for 24 hours. […]
An algorithm was developed in Cellomics Arrayscan Vti HCS reader to measure the morphological characteristics such as cardiomyocyte length, width, length-width ratio, cell area, and the intensity of α-actinin. […]

cardiomyocytes (NRVMs) = assay: Oxygen consumption rate of cardiomyocytes (Seahorse Mito Stress Test); format: cell-based, neonatal rat; conditions: 24 h treatment; vs untreated control; FIG. 12
Method: OCR detection of cardiomyocytes was conducted with the Seahorse Xfe 24 analyzer (Agilent, Santa Clara, USA). Cardiomyocytes were seeded at a density of 8×10^4/well in a special Seahorse 24-well plate (102342-100, Seahorse). After treating with hCT1, PE and drug for 24 h, the medium was replaced with XF medium containing 10 mM D-(+)-glucose (G7021, Sigma-Aldrich), and 1 mM sodium pyruvate (11360070, Thermo Fisher). The plates were placed in a CO2-free 37 °C incubator for an hour before the measurement. A Seahorse XF Cell Mito Stress Test Kit (103015-100, Seahorse) was used for detection. The basal respiration of the NRVMs was detected, and ATP-linked OCR was analyzed after treatment with 1 μM oligomycin (ATP synthase inhibitor). Then, the uncoupling agent carbonyl [COMPOUND LEFT OUT] 4-(trifluoromethoxy) phenylhydrazone (FCCP) 0.5 μM was injected to detect maximal respiration. Finally, rotenone and antimycin A (AR) were used to abolish mitochondrial respiration by inhibiting complexes I and III, respectively.

Q: Which results are given for `CCN(CCO)CCCOc1ccc2c(Nc3cc(CC(=O)Nc4cccc(F)c4)[nH]n3)ncnc2c1` [AZD1152-HQPA, AZD1152-hydroxyquinazoline pyrazol anilide]?
A: Aurora B inhibition (Aurora B): strong and selective inhibitor of Aurora B; pH3 activity ([1]; AZD1152-HQPA alone): reduced pH3 activity; pH3 activity ([1]; AZD1152-HQPA in combination with PE treatment): reduced pH3 activity; aurora kinase b activation (aurora kinase B; AZD1152-HQPA 1.5 μM): inhibited aurora kinase b activation; pathological effect of PE (aurora kinase B; drug for 4 hours following PE treatment for 24 hours): able to reverse the pathological effect of PE; Mean NT Pro-BNP levels ([2]; drug 0.25 μm): 2100.945 pg/mL; Mean NT Pro-BNP levels ([2]; drug 0.5 μm): 1588.366 pg/mL; Mean NT Pro-BNP levels ([2]; drug 1 μm): 2023.151 pg/mL; Mean NT Pro-BNP levels ([2]; drug 2.5 μm): 2085.823 pg/mL; Pro-NT BNP levels compared to UT and CT1 treated cells ([2]; iCell cardiomyocytes): comparable and/or reduced BNP levels; cardiomyocyte remodeling (cardiomyocytes): adaptive and compensatory remodeling that resembles a physiologic growth response, adding sarcomeres in series; conversion to the active AZD1152-HQPA in plasma [3]: converted rapidly; Mean Cardiomyocyte Length ([4]; drug 0.25 μm, 24 hours): 236 µm; Mean Cardiomyocyte Length ([4]; drug 0.5 μm, 24 hours): 232 µm; Mean Cardiomyocyte Length ([4]; drug 1 μm, 24 hours): 218 µm; Mean Cardiomyocyte Length ([4]; drug 2.5 μm, 24 hours): 223 µm; Eccentric cardiac remodeling ([4]; iCell cardiomyocyte, 1 uM, FIG. 4A): Eccentric cardiac remodeling was observed; cardiomyocyte length compared with CT1 treated cells ([4]; iCell cardiomyocytes on coverslips, 24 hours): comparable cardiomyocyte length; length in iCell cardiomyocyte compared to hCT1 ([4]; 24 hours): increased length in iCell cardiomyocyte comparable to length induced by hCT1

Q: With `COc1cccc2c1C(=O)c1c(O)c3c(c(O)c1C2=O)C[C@@](O)(C(=O)CO)C[C@@H]3O[C@H]1C[C@H](N)[C@H](O)[C@H](C)O1` [DOX, doxorubicin] as the molecule, how does the “DOX-induced effect on heart” value ([5]; CDK2 activation as mechanism) read?
A: Its value is “cardiomyocyte apoptosis and ventricular dysfunction”.

Q: Which results are given for `CC(=O)c1c(C)c2cnc(Nc3ccc(N4CCNCC4)cn3)nc2n(C2CCCC2)c1=O` [Palbociclib]?
A: CDK4/6 inhibition (CDK4/6): CDK4/6 inhibitor; effect on streptozotocin (STZ)-induced cardiac dysfunction [6]: inhibiting streptozotocin (STZ)-induced cardiac dysfunction by attenuating maladaptive cardiac remodeling

Q: With `CC[C@H](CO)Nc1nc(NCc2ccccc2)c2ncn(C(C)C)c2n1` [Roscovitine] as the molecule, how does the “cardioprotective effect against DOX” value ([5]; DOX-associated contractile dysfunction and ventricular remodeling) read?
A: The value was “attenuating myocytes from DOX-associated contractile dysfunction and ventricular remodeling”.

Q: And the CDK2 inhibition (CDK2)?
A: Its CDK2 inhibition is “CDK2 inhibitor”.

B1: CT1: Cardiotrophin 1 at 40 ng/mL was used as a positive control (protein, UniProt Q16619 1-201, looked up)
Cardiotrophin-1: MSRREGSLEDPQTDSSVSLLPHLEAKIRQTHSLAHLLTKYAEQLLQEYVQLQGDPFGLPSFSPPRLPVAGLSAPAPSHAGLPVHERLRLDAAALAALPPLLDAVCRRQAELNPRAPRLLRRLEDAARQARALGAAVEALLAALGAANRGPRAEPPAATASAASATGVFPAKVLGLRVCGLYREWLSRTEGDLGQLLPGGSA
Q: Which results are given for B1?
A: area under the curve (AUC) of calcium transient ([7]; compared to control, FIG. 11): increased AUC compared to control; calcium transient levels ([7]; compared to control, FIG. 11): increase in calcium transient levels compared to control; contractility / contractile function ([7]; inferred from peak calcium transient, AUC and time to peak): improved contractility by modest increase in peak calcium transient levels and AUC with modest decrease in time to attain those peak levels; length of cardiomyocyte [8]: increase in the length of cardiomyocyte; oxygen consumption rate (OCR) (cardiomyocytes (NRVMs)): increase the rate of oxygen consumption; Mean NT Pro-BNP levels ([2]; control CT1): 2240.774 pg/mL; Mean Cardiomyocyte Length ([4]; positive control CT1, 40 ng/mL, 24 hours): 229 µm; length in iCell cardiomyocyte compared to hCT1 ([4]; 24 hours): positive modulator of cardiomyocyte length
